Test results taken from patent US20100003217A1, “Compounds and Pharmaceutical Compositions for the Treatment of Viral Infections” (priority 2008, published 2010).
One block for each molecule: values may come before it.

Tests used:
[1] = Excretion of administered dose in rat urine and feces; type: in vivo, male Sprague-Dawley rats; details: for Percent of Dose, Total (urine, feces and liver): Oral, 24 h after [14C]Compound 1
Description: Isotopically diluted [^14C]-Compound 1 was administered intravenously to male Sprague-Dawley rats at 50 mg/kg or by oral gavage at 100 mg/kg.
Percent of the administered dose (% AD) for parent drug and each metabolite at each collection period=(% of the total radioactivity in the sample attributed to the metabolite)*(total radioactivity expressed as % of the administered dose, recovered during the corresponding collection period).
The urine and feces of each animal were analyzed for radiolabel content.

[2] = as above; type: in vivo, male Sprague-Dawley rats; details: IV; 24 h after [14C]Compound 1
[3] = Stability in rat liver microsomes; type: in vitro ADME; details: for % Residual Compound 1 / % Residual Compound 2: rat liver microsomes 1 mg/mL; for NADPH-dependent metabolism: rat liver microsomes; for % Residual compound following incubation with liver microsomes: rat microsomes 1 mg/mL; for % Residual Compound 2: 15 min
Description: Disappearance of parent Compound 1 was used to evaluate the in vitro metabolism thereof. Relative levels of unchanged Compound 1 were measured by HPLC-UV method 1. Residual Compound 1 is reported as percent difference from time zero or control. The HPLC-UV system was as follows:
Incubations with liver microsomes or cytosol were conducted in a final volume of 0.1 mL per incubation time point. […] DMSO (final DMSO concentration was 0.1%) was incubated at 37° C. from 0-60 min with pooled microsomal protein (1.0 mg/mL), suspended in incubation buffer (0.1 M potassium phosphate, pH 7.4, 5 mM MgCl2, and 0.1 mM EDTA). The microsomal reaction was initiated by the addition of NADPH (3 mM final concentration). Incubations with (a) no protein or (b) no NADPH served as controls. Reactions were terminated by the addition of 0.2 mL of stop solution (acetonitrile). The samples were vortex-mixed for 30 sec and then centrifuged at 10,000×g for 10 min. The supernatant was dried using a Labconco CentriVap concentrator and the dry residue reconstituted in water, transferred to an HPLC glass vial and analyzed by HPLC-UV method 1 (described above).
(§1) Metabolic stability of the proposed metabolites was conducted by incubating the chemically synthesized standards Compound 2, Compound 4 and Compound 3 as described above for Compound 1. When possible, formation of Compound 5 was verified by incubating samples with alkaline phosphatase (10 U) for 60 min at 37° C.

[4] = Incubation with monkey liver cytosol; type: in vitro ADME; details: monkey cytosol 1 mg/mL, 2 hours, 10 μM
Description: Pooled liver cytosol (1.0 mg protein/mL) suspended in incubation buffer (0.1 M potassium phosphate, pH 7.4) was incubated for 2 hours at 37° C. with 10 μM Compound 1 from a stock solution in DMSO (final DMSO concentration was 0.1%); reaction was initiated with the addition of test article. Incubations with no protein served as control. Reactions were terminated by the addition of 0.1 mL of stop solution (acetonitrile). The samples were vortex-mixed for 30 sec and then centrifuged at 10,000×g for 10 min. The supernatant was dried using a Labconco CentriVap concentrator and the dry residue reconstituted in water, transferred to an HPLC glass vial and analyzed by HPLC-UV method 2 (described above).
as §1

[5] = rat, Group 1A: IV 50 mg/kg, termination 2 h
[6] = rat, Group 1B: IV 50 mg/kg, termination 6 h
[7] = rat, Group 1C: IV 50 mg/kg, termination 24 h
[8] = rat, Group 2A: PO 100 mg/kg, termination 2 h
[9] = rat, Group 2B: PO 100 mg/kg, termination 6 h
[10] = rat, Group 2C: PO 100 mg/kg, termination 24 h

Compound: CC(C)(CO)C(=O)SCCOP(=O)(NCc1ccccc1)OC[C@H]1O[C@@H](n2cnc3c(=O)[nH]c(N)nc32)[C@](C)(O)[C@@H]1O (mixture of isomers) [Compound 1, 3-hydroxy-2,2-dimethyl-thiopropionic acid S-(2-{[(2R,3R,4R,5R)-5-(2-amino-6-oxo-1,6-dihydro-purin-9-yl)-3,4-dihydroxy-4-methyl-tetrahydro-furan-2-ylmethoxy]-benzylamino-phosphoryloxy}-ethyl) ester]
Total excretion (% AD), total (urine + feces) ([1]; IV (1C)): 45.9 % AD
Percent of Dose, Total (urine, feces and liver) [1]: 65.6% of Dose
Total excretion (% AD), total (urine + feces) ([1]; PO (2C), urine data estimated): 65.6 % AD
Total excretion (urine + feces), % of the administered dose ([1]; rat, IV dose): 45.9%
radioactivity recovered in feces (% of dose) ([1]; rat, IV dose, 24 h): 39%
radioactivity recovered in urine (% of dose) ([1]; rat, IV dose, 24 h): 47%
Total excretion (urine + feces), % of the administered dose ([1]; rat, PO dose): 65.6%
Fecal Excretion (% AD) [1, 5]: 0.05 ± 0.08 % AD
Urinary + Fecal Excretion (% AD) [1, 5]: 26.0 ± 2.3 % AD
Urinary Excretion (% AD) [1, 5]: 25.9 ± 2.4 % AD
Fecal Excretion (% AD) [1, 6]: 0.13 ± 012 % AD
Urinary + Fecal Excretion (% AD) [1, 6]: 27.8 ± 4.9 % AD
Urinary Excretion (% AD) [1, 6]: 27.7 ± 4.9 % AD
Fecal Excretion (% AD) [1, 7]: 39.0 ± 4.0 % AD
Urinary + Fecal Excretion (% AD) [1, 7]: 86.0 ± 4.8 % AD
Urinary Excretion (% AD) [1, 7]: 46.9 ± 4.1 % AD
Fecal Excretion (% AD) [1, 8]: 0.001 ± 0.001 % AD
Urinary + Fecal Excretion (% AD) [1, 8]: 0.05 ± 0.06 % AD
Urinary Excretion (% AD) [1, 8]: 0.05 ± 0.06 % AD
Fecal Excretion (% AD) [1, 9]: 0.006 ± 0.005 % AD
Urinary + Fecal Excretion (% AD) [1, 9]: 0.36 ± 0.18 % AD
Urinary Excretion (% AD) [1, 9]: 0.36 ± 0.18 % AD
Fecal Excretion (% AD) [1, 10]: 91.3 ± 8.7 % AD
Urinary + Fecal Excretion (% AD) [1, 10]: 94.1 ± 8.9 % AD
Urinary Excretion (% AD) [1, 10]: 2.84 ± 0.82 % AD
Percent of Dose, Total (urine, feces and liver) [2]: 45.9% of Dose
% Residual Compound 1 ([3]; 10 μM, 0 min, NADPH): 100%
% Residual Compound 1 ([3]; 10 μM, 0 min, No Cofactor): 100%
% Residual Compound 1 ([3]; 10 μM, 30 min, NADPH): 53%
% Residual Compound 1 ([3]; 10 μM, 30 min, No Cofactor): 103%
% Residual Compound 1 ([3]; 10 μM, 60 min, NADPH): 36%
% Residual Compound 1 ([3]; 10 μM, 60 min, No Cofactor): 103%
NADPH-dependent metabolism ([3]; NADPH, 60 min, 10 μM): 64%
Residual compound following incubation with liver cytosol [4]: 100%

NADPH-dependent metabolism ([3]; 60 min, 50 μM): 10%
% Residual compound following incubation with liver microsomes ([3]; 60 min, 50 μM, NADPH): 90%
% Residual compound following incubation with liver microsomes ([3]; 60 min, 50 μM, No Cofactor): 101%
Residual compound following incubation with liver cytosol [4]: 99%
Compound: CC(C)(CO)C(=O)SCCOP(N)(=O)OC[C@H]1O[C@@H](n2cnc3c(=O)[nH]c(N)nc32)[C@](C)(O)[C@@H]1O (mixture of isomers) [Compound 3, {9-[(2R)2-C-methyl-β-D-ribo-furanosyl]-guanin}-5′-yl-O-(hydroxy-tert-butyl-S-acyl-2-thioethyl) phosphoramidate]

Percent of Dose, Total (urine, feces and liver) [1]: 0.001% of Dose
Percent of Dose, Total (urine, feces and liver) [2]: 0.76% of Dose
% Residual Compound 2 ([3]; 10 μM, NADPH): 0%
% Residual Compound 2 ([3]; 10 μM, No Cofactor): 0%
Residual compound following incubation with liver cytosol [4]: 0%
Compound: C[C@@]1(O)[C@H](O)[C@@H](COP(=O)(O)NCc2ccccc2)O[C@H]1n1cnc2c(=O)[nH]c(N)nc21 [Compound 2, [(2R)-2-methyl-β-D-ribofuranosyl]guanine-N-benzylaminyl-5′-monophosphate]
